Laboratory results from ChEMBL document CHEMBL1201862, “PubChem BioAssay data set” (2004).
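1) Cells in 96-well plates. 2) Compound, 48 h, 5 concentrations. 3) Linear interpolation between surrounding doses. 4) Unreached endpoint = highest concentration. At the GI50, growth is halved.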 The source made the active and inactive calls. No stated cut-off is given here; in the data, active = GI50 up to about 1.1 µM and inactive = higher.

Experiments:
Assay in all cases: NCI-60 cell line screen, 48 h
OVCAR-8 = test system: OVCAR-8
KM-20L2 = test system: KM-20L2
SF-539 = test system: SF-539
COLO 205 = test system: COLO 205
CCRF-CEM = test system: CCRF-CEM
LXFL 529 = test system: LXFL 529
M14 = test system: M14
CAKI-1 = test system: CAKI-1
HCT-116 = test system: HCT-116
MOLT-4 = test system: MOLT-4
A549 = test system: A549
HOP-92 = test system: HOP-92
SW-620 = test system: SW-620
NCI-H460 = test system: NCI-H460
ACHN = test system: ACHN
KM12 = test system: KM12
IGROV-1 = test system: IGROV-1
OVCAR-5 = test system: OVCAR-5
TK-10 = test system: TK-10
SR = test system: SR
NCI-H226 = test system: NCI-H226
DLD-1 = test system: DLD-1
SK-MEL-5 = test system: SK-MEL-5
SF-295 = test system: SF-295
OVCAR-4 = test system: OVCAR-4
786-0 = test system: 786-0
K562 = test system: K562
HOP-62 = test system: HOP-62
SN12C = test system: SN12C
NCI-H23 = test system: NCI-H23
HL-60 = test system: HL-60
Malme-3M = test system: Malme-3M
RPMI-8226 = test system: RPMI-8226
RXF 393 = test system: RXF 393
LOX IMVI = test system: LOX IMVI
UACC-62 = test system: UACC-62
M19-MEL = test system: M19-MEL
SNB-75 = test system: SNB-75
HT-29 = test system: HT-29
SNB-19 = test system: SNB-19
SF-268 = test system: SF-268
UACC-257 = test system: UACC-257
NCI-H522 = test system: NCI-H522
DMS-114 = test system: DMS-114
UO-31 = test system: UO-31
HCT-15 = test system: HCT-15
OVCAR-3 = test system: OVCAR-3
HCC 2998 = test system: HCC 2998
EKVX = test system: EKVX
HOP-18 = test system: HOP-18
SK-OV-3 = test system: SK-OV-3
U-251 = test system: U-251
SK-MEL-28 = test system: SK-MEL-28
SK-MEL-2 = test system: SK-MEL-2
A498 = test system: A498
XF498 = test system: XF498
DMS-273 = test system: DMS-273
SNB-78 = test system: SNB-78

Measured: GI50

COc1cc2ccc3c4cc(OC)c(OC(C)C)cc4c[n+](C)c3c2cc1OC
> 100 µM: HCT-15
inactive: OVCAR-8 39.2 µM | KM-20L2 > 100 µM | SF-539 40.4 µM | COLO 205 14.5 µM | CCRF-CEM 49.1 µM | LXFL 529 14.2 µM | M14 64.6 µM | CAKI-1 > 100 µM | HCT-116 > 100 µM | MOLT-4 > 100 µM | A549 > 100 µM | HOP-92 36.7 µM | SW-620 71.6 µM | NCI-H460 > 100 µM | ACHN > 100 µM | KM12 > 100 µM | IGROV-1 74.5 µM | OVCAR-5 > 100 µM | TK-10 > 100 µM | SR 47.8 µM | NCI-H226 71.3 µM | DLD-1 > 100 µM | SK-MEL-5 42 µM | SF-295 > 100 µM | OVCAR-4 64 µM | 786-0 99.3 µM | K562 22.7 µM | HOP-62 > 100 µM | SN12C 31.5 µM | NCI-H23 95.7 µM | HL-60 35.1 µM | Malme-3M 48.9 µM | RPMI-8226 > 100 µM | RXF 393 27.7 µM | LOX IMVI 54.3 µM | UACC-62 55.2 µM | M19-MEL 29 µM | SNB-75 34 µM | HT-29 > 100 µM | SNB-19 > 100 µM | SF-268 32.7 µM | UACC-257 28.2 µM | NCI-H522 17.4 µM | DMS-114 9.64 µM | UO-31 > 100 µM | OVCAR-3 19.7 µM | HCC 2998 44.5 µM | EKVX > 100 µM | HOP-18 23.4 µM | SK-OV-3 > 100 µM | U-251 31.3 µM | SK-MEL-28 33.6 µM | SK-MEL-2 30.8 µM

CS(=O)(=O)N(CCC#N)c1ccc(C=O)cc1
> 100 µM: HCT-15
inactive: OVCAR-8 > 100 µM | KM-20L2 > 100 µM | SF-539 > 100 µM | LXFL 529 > 100 µM | M14 > 100 µM | CAKI-1 > 100 µM | HCT-116 > 100 µM | MOLT-4 92.7 µM | A549 > 100 µM | SW-620 > 100 µM | NCI-H460 > 100 µM | ACHN > 100 µM | KM12 > 100 µM | IGROV-1 > 100 µM | OVCAR-5 > 100 µM | SR > 100 µM | NCI-H226 > 100 µM | SK-MEL-5 > 100 µM | SF-295 > 100 µM | OVCAR-4 > 100 µM | 786-0 > 100 µM | K562 > 100 µM | HOP-62 97.9 µM | SN12C > 100 µM | HL-60 > 100 µM | Malme-3M > 100 µM | RPMI-8226 > 100 µM | LOX IMVI > 100 µM | UACC-62 > 100 µM | M19-MEL > 100 µM | SNB-75 > 100 µM | HT-29 > 100 µM | SNB-19 > 100 µM | SF-268 > 100 µM | UACC-257 > 100 µM | NCI-H522 > 100 µM | DMS-114 > 100 µM | UO-31 > 100 µM | A498 > 100 µM | OVCAR-3 > 100 µM | HCC 2998 > 100 µM | EKVX > 100 µM | SK-OV-3 > 100 µM | U-251 > 100 µM | SK-MEL-28 > 100 µM | XF498 > 100 µM | DMS-273 > 100 µM | SK-MEL-2 > 100 µM

CCc1nc2ccccc2c(=O)n1/N=C(\N=N\c1ccc(Cl)cc1)c1ccccc1
inactive: OVCAR-8 35.2 µM | KM-20L2 14 µM | SF-539 22.5 µM | COLO 205 31.3 µM | CCRF-CEM 65.8 µM | LXFL 529 19.1 µM | M14 34.2 µM | CAKI-1 17 µM | HCT-116 17.3 µM | MOLT-4 28.1 µM | A549 23.3 µM | HOP-92 13.9 µM | SW-620 31.3 µM | NCI-H460 27.4 µM | ACHN 31.8 µM | KM12 18.2 µM | SNB-78 27.1 µM | IGROV-1 34 µM | OVCAR-5 > 100 µM | TK-10 31 µM | NCI-H226 21.8 µM | DLD-1 37.2 µM | SK-MEL-5 18.4 µM | SF-295 25 µM | OVCAR-4 23.5 µM | 786-0 23.1 µM | K562 > 10 µM | HOP-62 24.3 µM | SN12C 36 µM | NCI-H23 > 100 µM | HL-60 42.4 µM | Malme-3M 38.6 µM | RPMI-8226 30.7 µM | RXF 393 14.2 µM | LOX IMVI 16.9 µM | UACC-62 30.8 µM | M19-MEL 41.8 µM | SNB-75 14.6 µM | HT-29 15.7 µM | SNB-19 23.4 µM | SF-268 17.3 µM | UACC-257 13.2 µM | NCI-H522 20.1 µM | DMS-114 18.7 µM | UO-31 19.5 µM | A498 26.7 µM | OVCAR-3 20.7 µM | HCC 2998 29.2 µM | EKVX 26.1 µM | HOP-18 12.5 µM | SK-OV-3 23.7 µM | U-251 26.9 µM | SK-MEL-28 32 µM | DMS-273 20.7 µM | SK-MEL-2 32.7 µM
39.6 µM: HCT-15
